The source of these data is patent US10011597B2 (APOGLYX AB, priority 2014, dated 2018).

pIC50: −log10 of the molar value.

The target of the test is T1, human aquaporin 9 (Homo sapiens, UniProt O43315).
T1 construct: expressed in transfected cells; host or cells: Human AQP9 cell line with tetracycline added to the medium
T1 sequence (O43315 1-295): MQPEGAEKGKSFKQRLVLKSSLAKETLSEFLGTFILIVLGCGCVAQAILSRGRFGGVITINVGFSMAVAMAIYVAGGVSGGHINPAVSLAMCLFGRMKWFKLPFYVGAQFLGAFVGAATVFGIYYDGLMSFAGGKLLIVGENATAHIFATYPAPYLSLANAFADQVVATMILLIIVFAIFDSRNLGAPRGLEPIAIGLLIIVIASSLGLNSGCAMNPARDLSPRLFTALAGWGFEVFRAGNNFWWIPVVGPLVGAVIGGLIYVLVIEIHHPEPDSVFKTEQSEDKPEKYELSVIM
Nature of the test: Calcein quenching fluostar assay. In kind it is cell-based. The note with it: inhibition of human aquaporin 9; Human AQP9 cell line, tetracyclin-induced; 25° C. The method, then: Calcein Quenching Fluostar Assay
A calcein quenching fluostar assay was performed in order to investigate the biological activity of the newly synthesized examples 1 to 57. This type of assay is disclosed in J. Biol. Chem., 2011, 286, 44319-44325 and Am. J. Physiol. Renal Physiol. (2010), 298, F224-230.
1) Two days prior to commencement of the assay, seed 10,000 cells/well of 96 well black clear bottom plate (Greiner Poly-lysin plate). A 1:1 mix of Dulbecco's Modified Eagle's Medium:Nutrient Mixture F-12 (DMEM: F12) was obtained from Gibco. Tetracycline stock of 5 mg/ml in 96% ethanol is used. Medium:DMEM/F12/10% Donor Bovine Serum, Human AQP9 cell line+1:270,000 tetracyclin, mouse AQP9 cell line+1:2,700,000 tetracycline.
2) Day of assay: Flick/slam off the medium and add 50 μl/well of loading solution: 5 ml DMEM/F12/10% Donor Bovine Serum, 25 μl Calcein AM—from freshly dissolved aliquot in 50 μl DMSO (VWR #734-1434), and 100 μl Probenecid.
3) Incubate the well for 90 minutes at 37° C.
4) Perform one wash with 75 μl wash buffer.
5) Add 75 μl of an example compound prepared in wash buffer per well.
Example compounds are prepared in 500 μl U bottom PP plates (NUNC). […] Substance in DMSO are added to row A; 180 μl of wash buffer+1% DMSO are added to rows B-H. 90 μl from row A are transferred and mixed with all other wells (up to row G) to make a 3-fold dilution series.
6) Assay in FLUOstar Optima at 25° C. Settings buffer addition at 135 μl seconds, add 75 μl/well, record time course for 30 seconds, add sucrose buffer 3.6 seconds into recording.
7) Normalization to initial in Excel.
8) Fit to “exponential decay” function in GraphPad Prism 5.0, then arrange half live shrinking values according to wells and fit dose-response curves.
Take `Cn1c(SCC(=O)Nc2nnc(-c3ccc(F)cc3)s2)nnc1-c1ccc(F)cc1` [Example 1, N-[5-(4-fluorophenyl)-1,3,4-thiadizole-2-yl]-2-{[5-(4-fluorophenyl)-4-methyl-4H-1,2,4-triazole-3-yl]sulfanyl}acetamide]: the negative-log IC50 (pIC50) is 6.41.
Under `Cn1c(SCC(=O)Nc2nnc(-c3ccccc3F)s2)nnc1-c1ccncc1` [Example 2, N-[5-(2-fluorophenyl)-1,3,4-thiadiazol-2-yl]-2-{[4-methyl-5-(pyridin-4-yl)-4H-1,2,4-triazol-3-yl]sulfanyl}acetamide] stands 6.71.
Under `Cn1c(SCC(=O)Nc2nnc(-c3cccc(F)c3)s2)nnc1-c1ccc(F)cc1` [Example 3, N-[5-(3-fluorophenyl)-1,3,4-thiadizole-2-yl]-2-{[5-(4-fluorophenyl)-4-methyl-4H-1,2,4-triazole-3-yl]sulfanyl}acetamide] stands 5.89; under `COc1ccccc1-c1nnc(NC(=O)CSc2nnc(-c3ccc(F)cc3)n2C)s1` [Example 4, 2-{[5-(4-Fluorophenyl)-4-methyl-4H-1,2,4-triazole-3-yl]sulfanyl}-N-[5-(2-methoxyphenyl)-1,3,4-thiadizole-2-yl]-acetamide], 5.32; under `CCn1c(SCC(=O)Nc2nnc(-c3cccc(OC)c3)s2)nnc1-c1ccc(F)cc1` [Example 5, 2-{[4-ethyl-5-(4-fluorophenyl)-4H-1,2,4-triazol-3-yl]sulfanyl}-N-[5-(3-methoxyphenyl)-1,3,4-thiadiazol-2-yl]acetamide], 5.32.
In the case of `COc1ccc(-c2nnc(NC(=O)CSc3nnc(-c4ccc(F)cc4)n3C)s2)cc1` [Example 6, 2-{[5-(4-Fluorophenyl)-4-methyl-4H-1,2,4-triazole-3-yl]sulfanyl}-N-[5-(4-methoxyphenyl)-1,3,4-thiadizole-2-yl]-acetamide], the pIC50 is 6.60.
Under `Cn1c(SCC(=O)Nc2nnc(-c3ccccc3F)s2)nnc1-c1ccc(Cl)cc1` [Example 7, 2-{[5-(4-Chlorophenyl)-4-methyl-4H-1,2,4-triazole-3-yl]sulfanyl}-N-[5-(2-fluorophenyl)-1,3,4-thiadizole-2-yl]-acetamide] stands 6.59; under `Cn1c(SCC(=O)Nc2nnc(-c3ccccc3F)s2)nnc1-c1ccc(F)cc1` [Example 8, 2-{[5-(4-Fluorophenyl)-4-methyl-4H-1,2,4-triazole-3-yl]sulfanyl}-N-[5-(2-fluorophenyl)-1,3,4-thiadizole-2-yl]-acetamide], 6.80.
As for `Cn1c(SCC(=O)Nc2nnc(-c3ccc(F)cc3)s2)nnc1-c1ccncc1` [Example 9, N-[5-(4-fluorophenyl)-1,3,4-thiadiazol-2-yl]-2-{[4-methyl-5-(pyridin-4-yl)-4H-1,2,4-triazol-3-yl]sulfanyl}acetamide], the figure is 6.95; as for `COc1ccc(-c2nnc(NC(=O)CSc3nnc(-c4ccncc4)n3C)s2)cc1` [Example 10, N-[5-(4-methoxyphenyl)-1,3,4-thiadiazol-2-yl]-2-{[4-methyl-5-(pyridin-4-yl)-4H-1,2,4-triazol-3-yl]sulfanyl}acetamide], 7.43; as for `CCn1c(SCC(=O)Nc2nnc(-c3ccc(OC)cc3)s2)nnc1-c1ccc(F)cc1` [Example 11, 2-{[4-Ethyl-5-(4-fluorophenyl)-4H-1,2,4-triazol-3-yl]sulfanyl}-N-[5-(4-methoxyphenyl)-1,3,4-thiadiazol-2-yl]acetamide], 7.40.
As for `CCn1c(SCC(=O)Nc2nnc(-c3ccc(F)cc3)s2)nnc1-c1ccc(F)cc1` [Example 12, 2-{[4-Ethyl-5-(4-fluorophenyl)-4H-1,2,4-triazol-3-yl]sulfanyl}-N-[5-(4-fluorophenyl)-1,3,4-thiadiazol-2-yl]acetamide], the pIC50 is 7.25.
Under `CCn1c(SCC(=O)Nc2nnc(-c3ccc(OC)cc3)s2)nnc1-c1ccccc1C` [Example 13, 2-{[4-Ethyl-5-(2-methylphenyl)-4H-1,2,4-triazol-3-yl]sulfanyl}-N-[5-(4-methoxyphenyl)-1,3,4-thiadiazol-2-yl]acetamide] stands 6.49; under `CCn1c(SCC(=O)Nc2nnc(-c3ccc(OC)cc3)s2)nnc1-c1cccc(C)c1` [Example 14, 2-{[4-Ethyl-5-(3-methylphenyl)-4H-1,2,4-triazol-3-yl]sulfanyl}-N-[5-(4-methoxyphenyl)-1,3,4-thiadiazol-2-yl]acetamide], 6.76; under `CCn1c(SCC(=O)Nc2nnc(-c3ccc(OC)cc3)s2)nnc1-c1ccc(C)cc1` [Example 15, 2-{[4-Ethyl-5-(4-methylphenyl)-4H-1,2,4-triazol-3-yl]sulfanyl}-N-[5-(4-methoxyphenyl)-1,3,4-thiadiazol-2-yl]acetamide], 6.58.
As for `CCn1c(SCC(=O)Nc2nnc(-c3ccc(OC)cc3)s2)nnc1-c1ccc(OC)cc1` [Example 16, 2-{[4-Ethyl-5-(4-methoxyphenyl)-4H-1,2,4-triazol-3-yl]sulfanyl}-N-[5-(4-methoxyphenyl)-1,3,4-thiadiazol-2-yl]acetamide], the figure is 6.57; as for `CCn1c(SCC(=O)Nc2nnc(-c3ccc(OC)cc3)s2)nnc1-c1ccccc1F` [Example 17, 2-{[4-Ethyl-5-(2-fluorophenyl)-4H-1,2,4-triazol-3-yl]sulfanyl}-N-[5-(4-methoxyphenyl)-1,3,4-thiadiazol-2-yl]acetamide], 6.86.
In the case of `CCn1c(SCC(=O)Nc2nnc(-c3ccc(OC)cc3)s2)nnc1-c1cccc(F)c1` [Example 18, 2-{[4-Ethyl-5-(3-fluorophenyl)-1,2,4-triazol-3-yl]sulfanyl}-N-[5-(4-methoxyphenyl)-1,3,4-thiadiazol-2-yl]acetamide], the pIC50 was 6.87.
As for `CCn1c(SCC(=O)Nc2nnc(-c3ccc(OC)cc3)s2)nnc1-c1ccccc1Cl` [Example 19, 2-{[5-(2-Chlorophenyl)-4-ethyl-4H-1,2,4-triazol-3-yl]sulfanyl}-N-[5-(4-methoxyphenyl)-1,3,4-thiadiazol-2-yl]acetamide], the figure is 6.63; as for `CCn1c(SCC(=O)Nc2nnc(-c3ccc(OC)cc3)s2)nnc1-c1cccnc1` [Example 20, 2-{[4-Ethyl-5-(pyridin-3-yl)-4H-1,2,4-triazol-3-yl]sulfanyl}-N-[5-(4-methoxyphenyl)-1,3,4-thiadiazol-2-yl]acetamide], 7.25.
As to `CCn1c(SCC(=O)Nc2nnc(-c3ccc(OC)cc3)s2)nnc1-c1ccncc1` [Example 21, 2-{[4-Ethyl-5-(pyridin-4-yl)-4H-1,2,4-triazol-3-yl]sulfanyl}-N-[5-(4-methoxyphenyl)-1,3,4-thiadiazol-2-yl]acetamide], the pIC50 was 7.17.
Under `CCn1c(SCC(=O)Nc2nnc(-c3ccc(OC)cc3)s2)nnc1-c1cccc(OC)c1` [Example 22, 2-{[4-Ethyl-5-(3-methoxyphenyl)-4H-1,2,4-triazol-3-yl]sulfanyl}-N-[5-(4-methoxyphenyl)-1,3,4-thiadiazol-2-yl]acetamide] stands 6.80.
In the case of `CCn1c(SCC(=O)Nc2nnc(-c3ccc(F)cc3)s2)nnc1-c1cccc(C)c1` [Example 23], the pIC50 was 6.43.
Under `CCn1c(SCC(=O)Nc2nnc(-c3ccc(F)cc3)s2)nnc1-c1ccc(C)cc1` [Example 24, 2-{[4-Ethyl-5-(4-methylphenyl)-4H-1,2,4-triazol-3-yl]sulfanyl}-N-[5-(4-fluorophenyl)-1,3,4-thiadiazol-2-yl]acetamide] stands 6.37.
For `CCn1c(SCC(=O)Nc2nnc(-c3ccc(F)cc3)s2)nnc1-c1cccc(OC)c1` [Example 25, 2-{[4-Ethyl-5-(3-methoxyphenyl)-4H-1,2,4-triazol-3-yl]sulfanyl}-N-[5-(4-fluorohenyl)-1,3,4-thiadiazol-2-yl]acetamide], the pIC50 was 6.43.
For `CCn1c(SCC(=O)Nc2nnc(-c3ccc(F)cc3)s2)nnc1-c1ccc(OC)cc1` [Example 26, 2-{[4-Ethyl-5-(4-methoxyphenyl)-4H-1,2,4-triazol-3-yl]sulfanyl}-N-[5-(4-fluorophenyl)-1,3,4-thiadiazol-2-yl]acetamide], the pIC50 was 6.32.
As to `CCn1c(SCC(=O)Nc2nnc(-c3ccc(F)cc3)s2)nnc1-c1ccccc1F` [Example 27, 2-{[4-Ethyl-5-(2-fluorophenyl)-4H-1,2,4-triazol-3-yl]sulfanyl}-N-[5-(4-fluorophenyl)-1,3,4-thiadiazol-2-yl]acetamide], the pIC50 was 6.44.
Under `CCn1c(SCC(=O)Nc2nnc(-c3ccc(F)cc3)s2)nnc1-c1cccc(F)c1` [Example 28] stands 6.70.
